Assay results from article PMC9733678, “Combining drug salt formation with amorphous solid dispersions – a double edged sword” (Journal of Controlled Release, 2022).

Key:
[1] = Water sorption analysis of amorphous lumefantrine salts (DVS); format: physicochemical; conditions: neat amorphous salt; for weight gain (water sorption): 95% RH
Method: Water sorption profiles of the amorphous lumefantrine salts were measured using a DVS Adventure water vapor sorption analyzer (Surface Measurement Systems, Wembley, UK). Powdered salt (5–10 mg) was dried at 0% RH in the instrument for 120 min. After drying, the RH within the chamber was increased from 5% to 95% at a 5% step interval. The equilibrium criterion was a percent weight change over time (% dm/dt) of <0.002%/min for 10 min. Nitrogen was used as the purging gas.

[2] = Physical stability, open dish 40 °C/75% RH, monitored by PXRD; format: physicochemical; conditions: neat amorphous salt
Method: PXRD patterns of the lumefantrine salts and salt ASDs were collected using an X-ray diffractometer (Rigaku SmartLab, Rigaku Americas, The Woodlands, TX) operating at 40 kV and […] in Bragg–Brentano mode with a Cu-kα radiation source and D/tex ultra detector. Each sample was spread thinly on a glass sample holder. Data was collected from 4 to 40° 2θ using a step size of 0.02° and a scan rate of 4°/min.
To assess the physical stability of the salts and salt ASDs, the samples were stored in open dish accelerated stability conditions of 40 °C/ 75% RH. At pre-determined time intervals, the samples were removed and their PXRD patterns collected.

[3] = design: method as in PMID 10468018; conditions: amorphous salt; cited from earlier work
[4] = Thermal analysis (DSC), onset glass transition temperature; format: physicochemical; conditions: for Tg (glass transition temperature) of neat amorphous material: DSC
Method: A Q2000 differential scanning calorimeter (DSC; Q2000, TA Instruments, New Castle, DE) connected to an RCS 90 refrigerated cooling system (TA Instruments, New Castle, DE) was used to analyze the lumefantrine salts and salt ASDs. The thermal properties of lumefantrine free base, lumefantrine free base ASDs, and neat PVPVA were also analyzed. The purging gas used was dry nitrogen (50 mL/min flow rate). Temperature calibration of the DSC was performed using indium and tin, while indium was used for enthalpy calibration. Each sample (5–10 mg) was carefully weighed and sealed in a Tzero aluminum sample pan (TA Instruments, New Castle, DE). The procedure to obtain the sample Tg is as follows: equilibration at −10 °C, followed by heating with a modulation of ±0.636 °C every 40 s at 3 °C/min to the temperature of interest. The samples were then cooled to −10 °C at 10 °C/min and reheated at 5 °C/min. The first heating cycle was used to remove thermal history associated with the samples, while the second cycle was used to obtain the sample Tg.

[5] = design: method as in PMID 32134677; conditions: PVPVA ASD; cited from earlier work
[6] = design: method as in PMID 23763957; conditions: cited from earlier work
[7] = design: method as in PMID 24189249; conditions: cited from earlier work

CCCCN(CCCC)CC(O)c1cc(Cl)cc2c1-c1ccc(Cl)cc1C2=Cc1ccc(Cl)cc1.Cl (centres unmarked) [HCl salt, Lumefantrine HCl]
weight gain (water sorption) [1]: < 2%
time re-crystallization was resisted [2]: at least 16 weeks

COc1ccc2c(c1)c(CC(=O)[O-])c(C)n2C(=O)c1ccc(Cl)cc1.[Na+] [Na indomethacin]
Tg higher than indomethacin free acid [3]: ~75 °C

CCCCN(CCCC)CC(O)c1cc(Cl)cc2c1-c1ccc(Cl)cc1/C2=C/c1ccc(Cl)cc1.O=C(O)c1ccccc1 (centres unmarked) [benzoate salt, Lumefantrine benzoate]
elevation in Tg relative to the free base ([4]; neat amorphous salt): ~10 °C
weight gain (water sorption) [1]: < 2%
storage time at which crystalline peaks were observed [2]: ≤ 4 weeks

CCCCN(CCCC)CC(O)c1cc(Cl)cc2c1-c1ccc(Cl)cc1C2=Cc1ccc(Cl)cc1.O=S(=O)(O)c1ccccc1 (centres unmarked) [besylate salt, Lumefantrine besylate]
weight gain (water sorption) [1]: < 2%
storage time at which crystalline peaks were observed [2]: ≤ 4 weeks

CC1(C)[C@@H]2CC[C@@]1(CS(=O)(=O)O)C(=O)C2.CCCCN(CCCC)CC(O)c1cc(Cl)cc2c1-c1ccc(Cl)cc1/C2=C/c1ccc(Cl)cc1 (centres unmarked) [camsylate salt, Lumefantrine camsylate]
weight gain (water sorption) [1]: < 2%
storage time at which crystalline peaks were observed [2]: 32 weeks

COc1ccc2c(c1)c(CC(=O)O)c(C)n2C(=O)c1ccc(Cl)cc1 [indomethacin]
limit of congruency (LoC) [5]: 10%

CCCCN(CCCC)CC(O)c1cc(Cl)cc2c1-c1ccc(Cl)cc1/C2=C/c1ccc(Cl)cc1 (centres unmarked) [lumefantrine, reference compound]
Tg (glass transition temperature) of neat amorphous material [4]: 19.7 °C
Tg (glass transition temperature) of neat amorphous material ([4]; listed as free base): 20 °C
pKa of tertiary amine [6]: 8.73
log P [7]: 8.34

CCCCN(CCCC)CC(O)c1cc(Cl)cc2c1-c1ccc(Cl)cc1/C2=C/c1ccc(Cl)cc1.CCCCN(CCCC)CC(O)c1cc(Cl)cc2c1-c1ccc(Cl)cc1/C2=C/c1ccc(Cl)cc1.O=S(=O)(O)O (centres unmarked) [sulfate salt, Lumefantrine sulfate]
Tg (glass transition temperature) of neat amorphous material [4]: 101 °C
weight gain (water sorption) [1]: 3.3%
time re-crystallization was resisted [2]: at least 16 weeks

CCCCN(CCCC)CC(O)c1cc(Cl)cc2c1-c1ccc(Cl)cc1C2=Cc1ccc(Cl)cc1.Cc1ccc(S(=O)(=O)O)cc1 (centres unmarked) [tosylate salt, Lumefantrine tosylate]
weight gain (water sorption) [1]: < 2%

Lumefantrine PEG 250 diacid [PEG 250 diacid (1:1) salt]
appearance after exposure to 95% RH [1]: liquified
increase in weight (water sorption) ([1]; 90% RH): 5.1%
weight gain (water sorption) [1]: 6.6%

Lumefantrine PEG 250 diacid [PEG 250 diacid (2:1) salt]
storage time at which crystalline peaks were observed [2]: ≤ 4 weeks
